Experimental data reported in the NIST ThermoML archive (doi:10.1021/je100145f).
± gives the expanded uncertainty stated by the source.

Assay: xn = mol fraction of the nth substance listed
Details: 101 kPa, Liquid, Vibrating tube method

N#Cc1ccccc1 [benzonitrile] + CCCCCCCC
mass density (283.15 K, x1 = 0.022): 714.94 ± 0.22 kg/m3
mass density (283.15 K, x1 = 0.0576): 721.95 ± 0.22 kg/m3
mass density (283.15 K, x1 = 0.102): 731.07 ± 0.22 kg/m3
mass density (283.15 K, x1 = 0.1999): 752.43 ± 0.23 kg/m3
mass density (283.15 K, x1 = 0.2998): 776.16 ± 0.23 kg/m3
mass density (283.15 K, x1 = 0.4001): 802.02 ± 0.25 kg/m3
mass density (283.15 K, x1 = 0.4637): 819.57 ± 0.26 kg/m3
mass density (283.15 K, x1 = 0.4997): 829.9 ± 0.27 kg/m3
mass density (283.15 K, x1 = 0.5004): 830.12 ± 0.27 kg/m3
mass density (283.15 K, x1 = 0.6001): 860.7 ± 0.27 kg/m3
mass density (283.15 K, x1 = 0.7001): 894.21 ± 0.27 kg/m3
mass density (283.15 K, x1 = 0.7998): 930.65 ± 0.27 kg/m3
mass density (283.15 K, x1 = 0.9001): 970.69 ± 0.28 kg/m3
mass density (283.15 K, x1 = 0.95): 991.86 ± 0.29 kg/m3
mass density (283.15 K, x1 = 0.9801): 1005.05 ± 0.3 kg/m3
mass density (283.15 K, x1 = 1): 1013.99 ± 0.31 kg/m3
mass density (288.15 K, x1 = 0.022): 710.93 ± 0.22 kg/m3
mass density (288.15 K, x1 = 0.0576): 717.92 ± 0.22 kg/m3
mass density (288.15 K, x1 = 0.102): 727.01 ± 0.22 kg/m3
mass density (288.15 K, x1 = 0.1999): 748.32 ± 0.23 kg/m3
mass density (288.15 K, x1 = 0.2998): 772.01 ± 0.23 kg/m3
mass density (288.15 K, x1 = 0.4001): 797.83 ± 0.25 kg/m3
mass density (288.15 K, x1 = 0.4637): 815.35 ± 0.26 kg/m3
mass density (288.15 K, x1 = 0.4997): 825.68 ± 0.27 kg/m3
mass density (288.15 K, x1 = 0.5004): 825.9 ± 0.27 kg/m3
mass density (288.15 K, x1 = 0.6001): 856.42 ± 0.27 kg/m3
mass density (288.15 K, x1 = 0.7001): 889.88 ± 0.27 kg/m3
mass density (288.15 K, x1 = 0.7998): 926.27 ± 0.27 kg/m3
mass density (288.15 K, x1 = 0.9001): 966.28 ± 0.28 kg/m3
mass density (288.15 K, x1 = 0.95): 987.44 ± 0.29 kg/m3
mass density (288.15 K, x1 = 0.9801): 1000.62 ± 0.29 kg/m3
mass density (288.15 K, x1 = 1): 1009.55 ± 0.31 kg/m3
mass density (293.15 K, x1 = 0.022): 706.9 ± 0.22 kg/m3
mass density (293.15 K, x1 = 0.0576): 713.87 ± 0.22 kg/m3
mass density (293.15 K, x1 = 0.102): 722.94 ± 0.22 kg/m3
mass density (293.15 K, x1 = 0.1999): 744.2 ± 0.23 kg/m3
mass density (293.15 K, x1 = 0.2998): 767.84 ± 0.24 kg/m3
mass density (293.15 K, x1 = 0.4001): 793.63 ± 0.25 kg/m3
mass density (293.15 K, x1 = 0.4637): 811.12 ± 0.26 kg/m3
mass density (293.15 K, x1 = 0.4997): 821.44 ± 0.27 kg/m3
mass density (293.15 K, x1 = 0.5004): 821.66 ± 0.27 kg/m3
mass density (293.15 K, x1 = 0.6001): 852.14 ± 0.27 kg/m3
mass density (293.15 K, x1 = 0.7001): 885.55 ± 0.27 kg/m3
mass density (293.15 K, x1 = 0.7998): 921.9 ± 0.27 kg/m3
mass density (293.15 K, x1 = 0.9001): 961.87 ± 0.28 kg/m3
mass density (293.15 K, x1 = 0.95): 983.01 ± 0.29 kg/m3
mass density (293.15 K, x1 = 0.9801): 996.19 ± 0.29 kg/m3
mass density (293.15 K, x1 = 1): 1005.12 ± 0.3 kg/m3
mass density (298.15 K, x1 = 0.022): 702.86 ± 0.23 kg/m3
mass density (298.15 K, x1 = 0.0576): 709.81 ± 0.23 kg/m3
mass density (298.15 K, x1 = 0.102): 718.85 ± 0.23 kg/m3
mass density (298.15 K, x1 = 0.1999): 740.06 ± 0.23 kg/m3
mass density (298.15 K, x1 = 0.2998): 763.66 ± 0.24 kg/m3
mass density (298.15 K, x1 = 0.4001): 789.41 ± 0.25 kg/m3
mass density (298.15 K, x1 = 0.4637): 806.89 ± 0.26 kg/m3
mass density (298.15 K, x1 = 0.4997): 817.19 ± 0.28 kg/m3
mass density (298.15 K, x1 = 0.5004): 817.41 ± 0.28 kg/m3
mass density (298.15 K, x1 = 0.6001): 847.85 ± 0.27 kg/m3
mass density (298.15 K, x1 = 0.7001): 881.22 ± 0.27 kg/m3
mass density (298.15 K, x1 = 0.7998): 917.52 ± 0.27 kg/m3
mass density (298.15 K, x1 = 0.9001): 957.46 ± 0.28 kg/m3
mass density (298.15 K, x1 = 0.95): 978.59 ± 0.29 kg/m3
mass density (298.15 K, x1 = 0.9801): 991.77 ± 0.29 kg/m3
mass density (298.15 K, x1 = 1): 1000.69 ± 0.3 kg/m3
mass density (303.15 K, x1 = 0.022): 698.79 ± 0.23 kg/m3
mass density (303.15 K, x1 = 0.0576): 705.72 ± 0.23 kg/m3
mass density (303.15 K, x1 = 0.102): 714.74 ± 0.23 kg/m3
mass density (303.15 K, x1 = 0.1999): 735.9 ± 0.23 kg/m3
mass density (303.15 K, x1 = 0.2998): 759.46 ± 0.24 kg/m3
mass density (303.15 K, x1 = 0.4001): 785.18 ± 0.25 kg/m3
mass density (303.15 K, x1 = 0.4637): 802.63 ± 0.26 kg/m3
mass density (303.15 K, x1 = 0.4997): 812.93 ± 0.28 kg/m3
mass density (303.15 K, x1 = 0.5004): 813.14 ± 0.28 kg/m3
mass density (303.15 K, x1 = 0.6001): 843.55 ± 0.27 kg/m3
mass density (303.15 K, x1 = 0.7001): 876.87 ± 0.27 kg/m3
mass density (303.15 K, x1 = 0.7998): 913.13 ± 0.27 kg/m3
mass density (303.15 K, x1 = 0.9001): 953.05 ± 0.28 kg/m3
mass density (303.15 K, x1 = 0.95): 974.17 ± 0.29 kg/m3
mass density (303.15 K, x1 = 0.9801): 987.34 ± 0.29 kg/m3
mass density (303.15 K, x1 = 1): 996.26 ± 0.3 kg/m3
mass density (308.15 K, x1 = 0.022): 694.71 ± 0.23 kg/m3
mass density (308.15 K, x1 = 0.0576): 701.62 ± 0.23 kg/m3
mass density (308.15 K, x1 = 0.102): 710.61 ± 0.23 kg/m3
mass density (308.15 K, x1 = 0.1999): 731.73 ± 0.23 kg/m3
mass density (308.15 K, x1 = 0.2998): 755.25 ± 0.24 kg/m3
mass density (308.15 K, x1 = 0.4001): 780.93 ± 0.25 kg/m3
mass density (308.15 K, x1 = 0.4637): 798.37 ± 0.27 kg/m3
mass density (308.15 K, x1 = 0.4997): 808.65 ± 0.28 kg/m3
mass density (308.15 K, x1 = 0.5004): 808.86 ± 0.28 kg/m3
mass density (308.15 K, x1 = 0.6001): 839.23 ± 0.27 kg/m3
mass density (308.15 K, x1 = 0.7001): 872.51 ± 0.27 kg/m3
mass density (308.15 K, x1 = 0.7998): 908.74 ± 0.27 kg/m3
mass density (308.15 K, x1 = 0.9001): 948.63 ± 0.28 kg/m3
mass density (308.15 K, x1 = 0.95): 969.74 ± 0.29 kg/m3
mass density (308.15 K, x1 = 0.9801): 982.91 ± 0.29 kg/m3
mass density (308.15 K, x1 = 1): 991.83 ± 0.3 kg/m3
mass density (313.15 K, x1 = 0.022): 690.6 ± 0.23 kg/m3
mass density (313.15 K, x1 = 0.0576): 697.49 ± 0.23 kg/m3
mass density (313.15 K, x1 = 0.102): 706.47 ± 0.23 kg/m3
mass density (313.15 K, x1 = 0.1999): 727.54 ± 0.23 kg/m3
mass density (313.15 K, x1 = 0.2998): 751.02 ± 0.24 kg/m3
mass density (313.15 K, x1 = 0.4001): 776.67 ± 0.25 kg/m3
mass density (313.15 K, x1 = 0.4637): 794.09 ± 0.27 kg/m3
mass density (313.15 K, x1 = 0.4997): 804.35 ± 0.28 kg/m3
mass density (313.15 K, x1 = 0.5004): 804.56 ± 0.28 kg/m3
mass density (313.15 K, x1 = 0.6001): 834.9 ± 0.27 kg/m3
mass density (313.15 K, x1 = 0.7001): 868.15 ± 0.27 kg/m3
mass density (313.15 K, x1 = 0.7998): 904.34 ± 0.27 kg/m3
mass density (313.15 K, x1 = 0.9001): 944.21 ± 0.28 kg/m3
mass density (313.15 K, x1 = 0.95): 965.31 ± 0.29 kg/m3
mass density (313.15 K, x1 = 0.9801): 978.48 ± 0.29 kg/m3
mass density (313.15 K, x1 = 1): 987.4 ± 0.3 kg/m3
mass density (318.15 K, x1 = 0.022): 686.47 ± 0.23 kg/m3
mass density (318.15 K, x1 = 0.0576): 693.34 ± 0.23 kg/m3
mass density (318.15 K, x1 = 0.102): 702.29 ± 0.23 kg/m3
mass density (318.15 K, x1 = 0.1999): 723.33 ± 0.23 kg/m3
mass density (318.15 K, x1 = 0.2998): 746.78 ± 0.24 kg/m3
mass density (318.15 K, x1 = 0.4001): 772.39 ± 0.25 kg/m3
mass density (318.15 K, x1 = 0.4637): 789.79 ± 0.27 kg/m3
mass density (318.15 K, x1 = 0.4997): 800.04 ± 0.28 kg/m3
mass density (318.15 K, x1 = 0.5004): 800.25 ± 0.28 kg/m3
mass density (318.15 K, x1 = 0.6001): 830.56 ± 0.27 kg/m3
mass density (318.15 K, x1 = 0.7001): 863.78 ± 0.27 kg/m3
mass density (318.15 K, x1 = 0.7998): 899.94 ± 0.27 kg/m3
mass density (318.15 K, x1 = 0.9001): 939.78 ± 0.28 kg/m3
mass density (318.15 K, x1 = 0.95): 960.88 ± 0.29 kg/m3
mass density (318.15 K, x1 = 0.9801): 974.05 ± 0.29 kg/m3
mass density (318.15 K, x1 = 1): 982.96 ± 0.3 kg/m3
